Measured values taken from article doi:10.1101/2025.05.17.654689v2 (biorxiv, 2025).

Test system: QgIspS1-like (ΔTP-QgIspS1-like-6×His)
Test: GC-MS
Type: biochemical, Quercus glauca
Details: 20 mM MgCl2, 37 °C, 30 min; from formation of the main product trans-β-ocimene

For CC(C)=CCC/C(C)=C/COP(=O)(O)OP(=O)(O)O [GPP], the Km was 180 ± 40 µM.
